Reference: patent US8877733B2, “1′-substituted pyrimidine N-nucleoside analogs for antiviral treatment” (Gilead Sciences, Inc., priority 2011, dated 2014)
Read-outs that look alike come from different tables or passages of the source. Values belong to the compound of their own block, whether it stands above or below them.

Tests used:
[1] = system: mitochondrial protein levels of Complexes II and IV; test: Mitochondrial Biogenesis Assay after 5-day treatment in PC-3 cells; assay type: cell-based; conditions: human
Description: (§1) Three-fold serial dilutions of compounds were prepared in duplicate in 96-well plates starting at a concentration close to the CC50 value of the compound after 5-day treatment. For compounds with CC50≧100 μM, the starting concentration was 100 μM. PC-3 cells were plated at a density of 2.5×10^3 cells per well in a final assay volume of 100 μL per well with a constant amount of DMSO equal to 0.5%. After 5-day incubation, the cells were analyzed with the MitoSciences MitoBiogenesis™ In-Cell ELISA Kit (catalog #MS642), which uses quantitative immunocytochemistry to measure protein levels of Complexes II and IV in cultured cells. Cells were fixed in a 96-well plate and target proteins were detected with highly-specific, well-characterized monoclonal antibodies. The protein levels were quantified with IRDyee-labeled Secondary Antibodies. IR imaging and quantitation was performed using a LI-COR® Odyssey instrument. All ratios were expressed as a percentage of the 0.5% DMSO control. In cases where cell viability was severely affected, the data for mitochondrial biogenesis was not included for analysis due to significant errors associated with low signals. Chloramphenicol was used as the positive control for the assay.

RSV strain A2 = test: RSV-induced cytopathic effect in Hep2 cells, 384 well method; assay type: cell-based; conditions: human respiratory syncytial virus, HEp-2, 120 h
Description: Antiviral activity against RSV is determined using an in vitro cytoprotection assay in Hep2 cells. […] The method used is similar to methods previously described in published literature (Chapman et al., Antimicrob Agents Chemother. 2007, 51(9):3346-53.)
Compounds were also tested for antiviral activity against RSV in Hep2 cells using a 384 well format. Compounds were diluted in DMSO using a 10-step serial dilution in 3-fold increments via automation in 4 adjacent replicates each. Eight compounds were tested per dilution plate. 0.4 uL of diluted compounds were then stamped via Biomek into 384-well plates (Nunc 142761 or 164730 w/lid 264616) containing 20 μL of media (Mediatech Inc. MEM supplemented with Glutamine, 10% FBS and Pen/Strep). DMSO and a suitable positive control compound, such as 80 μM GS-329467 or 10 μM 427346 was used for the 100% and 0% cell killing controls, respectively.
Hep2 cells (1.0×10^5 cells/mil) were prepared as above in batch to at least 40 mls excess of the number of sample plates (8 mls cell mix per plate) and infected with vendor supplied (ABI) RSV strain A2 to arrive at an MOI of 1:1000 (virus:cell #) or 1:3000 (vol virus: cell vol). Immediately after addition of virus, the RSV infected Hep2 cell suspension was added to each stamped 384-well plate at 20 μl per well using a uFlow dispenser, giving a final volume of 40 μL/well, each with 2000 infected cells. The plates were then incubated for 5 days at 37° C. and 5% CO2. Following incubation, the plates were equilibrated to room temperature in a biosafety cabinet hood for 1.5 hrs and 40 μL of Cell-Titer Glo viability reagent (Promega) was added to each well via uFlow. Following a10-20 minute incubation, the plates were read using an EnVision or Victor Luminescence plate reader (Perkin-Elmer). The data was then uploaded and analyzed on the Bioinformatics portal under the RSV Cell Infectivity and 8-plate EC50-Hep2-384 or 8-plate EC50-Hep2-Envision protocols.

HCV replicon cells = test: HCV EC50 determination, replicon cells luciferase assay; assay type: cell-based; conditions: Hepatitis C virus
Description: Replicon cells were seeded in 96-well plates at a density of 8×10^3 cells per well in 100 μL of culture medium, excluding Geneticin. Compound was serially diluted in 100% DMSO and then added to the cells at a 1:200 dilution, achieving a final concentration of 0.5% DMSO and a total volume of 200 μL. Plates were incubated at 37° C. for 3 days, after which culture medium was removed and cells were lysed in lysis buffer provided by Promega's luciferase assay system. Following the manufacturer's instruction, 100 μL of luciferase substrate was added to the lysed cells and luciferase activity was measured in a TopCount luminometer.

HCV Δ21 NS5b polymerase = HCV Δ21 NS5b polymerase (Hepatitis C virus genotype 1b (isolate Con1) (HCV), UniProt Q9WMX2); test: HCV IC50 determination, NS5b polymerase assay; assay type: biochemical; conditions: wild type or S282T mutant enzyme not specified, nucleoside triphosphates
Description: Assay Protocol: Either wild type or S282T (Migliaccio, et al., J. Biol. Chem. 2003, 49164-49170; Klumpp, et al., J. Biol. Chem. 2006, 3793-3799) mutant polymerase enzyme was used in this assay. NS5b polymerase assay (40 μL) was assembled by adding 28 μL polymerase mixture (final concentration: 50 mM Tris-HCl at pH 7.5, 10 mM KCl, 5 mM MgCl2, 1 mM DTT, 10 mM EDTA, 4 ng/μL of RNA template, and 75 nM HCV Δ21 NS5b polymerase) to assay plates followed by 4 μL of compound dilution. The polymerase and compound were pre-incubated at 35° C. for 10 minute before the addition of 8 μL of nucleotide substrate mixture (33P-[…] competing nucleotide at KM and 0.5 mM of the remaining three nucleotides). The assay plates were covered and incubated at 35° C. for 90 min. Reactions were then filtered through 96-well DEAE-81 filter plates via vacuum. The filter plates were then washed under vacuum with multiple volumes of 0.125 M NaHPO4, water, and ethanol to remove unincorporated label. Plates were then counted on TopCount to assess the level of product synthesis over background controls. The IC50 value is determined using Prism fitting program.

[2] = system: protein levels of Complexes II and IV in PC-3 cells; test: Mitochondrial Biogenesis Assay after 5-day treatment in PC-3 cells; assay type: cell-based; conditions: PC-3 cells, 5-day treatment; maximum concentration tested 100 μM
Description: as §1

[3] = Hep2 cells, RSV A2, 5 days, Cell-Titer Glo, 384 well format, read-out: EC50

SMILES: O=C(N[C@H](CO)[C@H](O)c1ccc([N+](=O)[O-])cc1)C(Cl)Cl [Chloramphenicol, reference compound]
CC50 at 5 days [1]: 2.5 µM

SMILES: CC(C)OC(=O)[C@H](C)NP(=O)(OC[C@H]1O[C@@](C#N)(n2ccc(=O)[nH]c2=O)[C@](C)(O)[C@@H]1O)Oc1ccccc1 (stereo partly drawn) [Compound 29]
EC50 (HCV replicon cells; 72 h): 8.2 µM

SMILES: C[C@@]1(O)[C@H](O)[C@@H](CO)O[C@H]1n1ccc(N)nc1=O [Compound A, reference compound]
EC50 (HCV replicon cells; HCV replicon, read-out: EC50 (antiviral activity)): 2.5 µM | EC50 (HCV replicon cells; replicon, comparison table R6=H vs R6=CN, read-out: HCV EC50): 2.5 µM | CC50 at 5 days [1]: 43 µM

SMILES: CC(C)OC(=O)[C@H](C)N[P@](=O)(OC[C@H]1O[C@@](C#N)(n2ccc(N)nc2=O)[C@](C)(O)[C@@H]1OC(=O)C(C)C)Oc1ccccc1 [Compound 35]
EC50 (RSV strain A2): 200 µM

SMILES: C[C@@]1(O)[C@H](O)[C@@H](COP(=O)(O)OP(=O)(O)OP(=O)(O)O)O[C@@]1(C#N)n1ccc(=O)[nH]c1=O [Compound 27]
IC50 (HCV Δ21 NS5b polymerase): 27 µM

SMILES: C[C@@]1(O)[C@H](O)[C@@H](COP(=O)(O)OP(=O)(O)OP(=O)(O)O)O[C@@]1(C#N)n1ccc(N)nc1=O [Compound 28]
IC50 (HCV Δ21 NS5b polymerase): 18 µM

SMILES: N#C[C@@]1(n2ccc(N)nc2=O)O[C@H](CO)[C@@H](O)[C@H]1O [Compound 4]
EC50 (RSV strain A2; [3]): 11.3 µM

SMILES: CC(C)OC(=O)[C@H](C)N[P@](=O)(OC[C@H]1O[C@@](C#N)(n2ccc(N)nc2=O)[C@](C)(O)[C@@H]1O)Oc1ccccc1 [Compound 30]
EC50 (RSV strain A2): 200 µM | EC50 (HCV replicon cells; 72 h): 2.6 µM | EC50 (HCV replicon cells; read-out: EC50 (antiviral activity)): 2.6 µM | EC50 (HCV replicon cells; read-out: HCV EC50): 2.6 µM | CC50 at 5 days ([1]; mitochondrial toxicity, PC-3 cells, 5-day treatment, maximum concentration tested 100 μM, read-out: CC50): > 100 µM | 50% inhibition of mitochondrial protein levels [2]: > 100 µM

SMILES: N#C[C@@]1(n2ccc(=O)[nH]c2=O)O[C@H](CO)[C@@H](O)[C@H]1O [Compound 3]
EC50 (RSV strain A2; [3]): 10.9 µM

Second part, the compound after the results:

EC50 (RSV strain A2; [3]): 200 µM
SMILES: C[C@H]1[C@H](O)[C@@H](CO)O[C@@]1(C#N)n1ccc(=O)[nH]c1=O [Compound 15]

EC50 (RSV strain A2; [3]): 200 µM
SMILES: CO[C@@H]1[C@H](O)[C@@H](CO)O[C@@]1(C#N)n1ccc(=O)[nH]c1=O [Compound 12]

EC50 (RSV strain A2; [3]): 200 µM
SMILES: C[C@@H](O)[C@H]1O[C@@](C#N)(n2ccc(N)nc2=O)[C@@H](O)[C@@H]1O [Compound 11]

EC50 (RSV strain A2; [3]): 200 µM
SMILES: C[C@@H](O)[C@H]1O[C@@](C#N)(n2ccc(=O)[nH]c2=O)[C@@H](O)[C@@H]1O [Compound 10]

EC50 (RSV strain A2; [3]): 200 µM
SMILES: CO[C@@H]1[C@H](O)[C@@H](CO)O[C@@]1(C#N)n1ccc(N)nc1=O [Compound 13]
